The test system of assay [1] is Escherichia coli ATCC 25922. The experiment in a line: MIC, broth microdilution (CLSI), reference strain. Particulars: CAMHB. For orientation: Dilution methods test growth across graded concentrations, often in twofold steps.
Assay [2] concerns Acinetobacter baumannii ATCC 19606. The assay is described as follows: MIC, broth microdilution (CLSI), reference strain. Particulars: CAMHB.
For assay [3], the system named is Staphylococcus aureus ATCC 13709. The experiment in a line: MIC, broth microdilution (CLSI), reference strain. As to conditions: CAMHB.
Assay [4] has as its target N-type calcium channels (Cav2.2) (Rattus norvegicus (Rat), UniProt Q02294). The experiment in a line: biochemical. The class given is binding.
Assay [5] has as its system Pseudomonas aeruginosa ATCC 27853. The experiment in a line: MIC, broth microdilution (CLSI), reference strain. Particulars: CAMHB.
Where [6] appears, read: class symbol, rat cerebral cortex, [125I]ω-conotoxin GVIA 0.001 nM, 30 minutes at room temperature, read-out: IC50 Cav2.2.

Where two headings read alike, the source gives them in different places. Square brackets hold non-standard residues; d marks the D form. Peptide text beside a SMILES is read from it. * marks the point of attachment. Dab(3S-OH) = NC[C@H](O)[C@H](N)C(=O)O; ΔZArg = N=C(N)NCC/C=C(\N)C(=O)O; aThr = C[C@H](O)[C@H](N)C(=O)O; dOrn = NCCC[C@@H](N)C(=O)O; Abu = CC[C@H](N)C(=O)O; NH(CH2)4NH2 = NCCCCN*

On to `C[C@H](O)[C@H](NC(=O)[C@@H](NC(=O)[C@@H](N)CCCCN)[C@@H](O)CN)C(=O)NCC(=O)N[C@H](CCCN)C(=O)N1CCC[C@H]1C(=O)N[C@@H](Cc1cnc[nH]1)C(=O)N[C@@H](CCCCN)C(=O)N/C(=C\CCNC(=N)N)C(=O)N[C@@H](CCCCN)C(=O)NCCCCN` [25.1] (H-K[Dab(3S-OH)][aThr]G[dOrn]PHK[ΔZArg]K-{NH(CH2)4NH2}), for which the “Ec: MIC Escherichia coli ATCC 25922” value in assay [1] is “++ (≤8 μg/mL)”. Further, the “Ab: MIC Acinetobacter baumannii ATCC 19606” value in assay [2] is reported as “− (>32 μg/mL)”. The “Sa: MIC Staphylococcus aureus ATCC 13709” value in assay [3] is reported as “++ (≤8 μg/mL)”. For the same compound, the IC50 was below 30 nM in assay [4] and 3 nM in assay [4] (value in brackets, rat cerebral cortex, [125I]ω-conotoxin GVIA 0.001 nM, read-out: IC50 Cav2.2). Further, the “Pa: MIC Pseudomonas aeruginosa ATCC 27853” value in assay [5] is on record as “+ (≤32 μg/mL)”.

As to `C[C@H](O)[C@H](NC(=O)[C@@H](NC(=O)[C@@H](N)CCCCN)[C@@H](O)CN)C(=O)NCC(=O)N[C@H](CCCN)C(=O)N1CCC[C@H]1C(=O)N[C@@H](Cc1cnc[nH]1)C(=O)N[C@@H](CCCCN)C(=O)N/C(=C\CCNC(=N)N)C(=O)O` [25.2] (H-K[Dab(3S-OH)][aThr]G[dOrn]PHK[ΔZArg]-OH), in assay [1], the “Ec: MIC Escherichia coli ATCC 25922” value is on record as “− (>32 μg/mL)”. Further, in assay [2], the “Ab: MIC Acinetobacter baumannii ATCC 19606” value is “− (>32 μg/mL)”. Further, in assay [3], the “Sa: MIC Staphylococcus aureus ATCC 13709” value is “− (>32 μg/mL)”. The IC50 in assay [4] (setting [6]) is above 300 nM. In assay [5], the “Pa: MIC Pseudomonas aeruginosa ATCC 27853” value is “− (>32 μg/mL)”.

Regarding `CC[C@H](C)[C@H](NC(=O)[C@@H](NC(=O)[C@@H](N)CCCCN)[C@@H](O)CN)C(=O)NCC(=O)N[C@H](CCCN)C(=O)N1CCC[C@H]1C(=O)N[C@@H](Cc1cnc[nH]1)C(=O)N[C@@H](CCCCN)C(=O)N/C(=C\CCNC(=N)N)C(=O)N[C@@H](CCCCN)C(=O)NCCCCN` [27.1] (H-K[Dab(3S-OH)]IG[dOrn]PHK[ΔZArg]K-{NH(CH2)4NH2}), in assay [1], the “Ec: MIC Escherichia coli ATCC 25922” value is recorded as “++ (≤8 μg/mL)”. In addition, the “Ab: MIC Acinetobacter baumannii ATCC 19606” value in assay [2] is “− (>32 μg/mL)”. Moreover, the “Sa: MIC Staphylococcus aureus ATCC 13709” value in assay [3] was “++ (≤8 μg/mL)”. In addition, in assay [4] (setting [6]), the IC50 is below 30 nM. The “Pa: MIC Pseudomonas aeruginosa ATCC 27853” value in assay [5] is recorded as “− (>32 μg/mL)”.

As for `CC[C@H](C)[C@H](NC(=O)[C@@H](NC(=O)[C@@H](N)CCCCN)[C@@H](O)CN)C(=O)NCC(=O)N[C@H](CCCN)C(=O)N1CCC[C@H]1C(=O)N[C@@H](Cc1cnc[nH]1)C(=O)N[C@@H](CCCCN)C(=O)N/C(=C\CCNC(=N)N)C(=O)O` [27.2] (H-K[Dab(3S-OH)]IG[dOrn]PHK[ΔZArg]-OH), in assay [1], the “Ec: MIC Escherichia coli ATCC 25922” value was “− (>32 μg/mL)”. The “Ab: MIC Acinetobacter baumannii ATCC 19606” value in assay [2] was “− (>32 μg/mL)”. In addition, the “Sa: MIC Staphylococcus aureus ATCC 13709” value in assay [3] is recorded as “+ (≤32 μg/mL)”. For the same compound, the IC50 in assay [4] (setting [6]) was above 300 nM. Also, the “Pa: MIC Pseudomonas aeruginosa ATCC 27853” value in assay [5] is given as “− (>32 μg/mL)”.

As to `CC[C@H](NC(=O)[C@@H](NC(=O)[C@@H](N)CCCCN)[C@@H](O)CN)C(=O)NCC(=O)N[C@H](CCCN)C(=O)N1CCC[C@H]1C(=O)N[C@@H](Cc1cnc[nH]1)C(=O)N[C@@H](CCCCN)C(=O)N/C(=C\CCNC(=N)N)C(=O)N[C@@H](CCCCN)C(=O)NCCCCN` [28.1] (H-K[Dab(3S-OH)][Abu]G[dOrn]PHK[ΔZArg]K-{NH(CH2)4NH2}), the “Ec: MIC Escherichia coli ATCC 25922” value in assay [1] is recorded as “++ (≤8 μg/mL)”. Besides, the “Ab: MIC Acinetobacter baumannii ATCC 19606” value in assay [2] was “− (>32 μg/mL)”. In assay [3], the “Sa: MIC Staphylococcus aureus ATCC 13709” value was “++ (≤8 μg/mL)”. Moreover, in assay [4] (setting [6]), the half-inhibitory concentration (IC50) is below 30 nM. Further, the “Pa: MIC Pseudomonas aeruginosa ATCC 27853” value in assay [5] was “− (>32 μg/mL)”.

Turning to `CC[C@H](NC(=O)[C@@H](NC(=O)[C@@H](N)CCCCN)[C@@H](O)CN)C(=O)NCC(=O)N[C@H](CCCN)C(=O)N1CCC[C@H]1C(=O)N[C@@H](Cc1cnc[nH]1)C(=O)N[C@@H](CCCCN)C(=O)N/C(=C\CCNC(=N)N)C(=O)O` [28.2] (H-K[Dab(3S-OH)][Abu]G[dOrn]PHK[ΔZArg]-OH), the “Ec: MIC Escherichia coli ATCC 25922” value in assay [1] was “− (>32 μg/mL)”. The “Ab: MIC Acinetobacter baumannii ATCC 19606” value in assay [2] is reported as “− (>32 μg/mL)”. For the same compound, in assay [3], the “Sa: MIC Staphylococcus aureus ATCC 13709” value is “+ (≤32 μg/mL)”. For the same compound, the IC50 in assay [4] (setting [6]) is above 300 nM. In assay [5], the “Pa: MIC Pseudomonas aeruginosa ATCC 27853” value is “− (>32 μg/mL)”.

For `CC(C)[C@H](NC(=O)[C@@H](NC(=O)[C@@H](N)CCCCN)[C@@H](O)CN)C(=O)NCC(=O)N[C@H](CCCN)C(=O)N1CCC[C@H]1C(=O)N[C@@H](Cc1cnc[nH]1)C(=O)N[C@@H](CCCCN)C(=O)N/C(=C\CCNC(=N)N)C(=O)N[C@@H](CCCCN)C(=O)NCCCCN` [212.1] (H-K[Dab(3S-OH)]VG[dOrn]PHK[ΔZArg]K-{NH(CH2)4NH2}), the “Ec: MIC Escherichia coli ATCC 25922” value in assay [1] is listed as “++ (≤8 μg/mL)”. Besides, the “Ab: MIC Acinetobacter baumannii ATCC 19606” value in assay [2] was “− (>32 μg/mL)”. For the same compound, in assay [3], the “Sa: MIC Staphylococcus aureus ATCC 13709” value is given as “++ (≤8 μg/mL)”. Moreover, the IC50 in assay [4] (setting [6]) is below 30 nM. Further, the “Pa: MIC Pseudomonas aeruginosa ATCC 27853” value in assay [5] was “− (>32 μg/mL)”.

As to `CC(C)[C@H](NC(=O)[C@@H](NC(=O)[C@@H](N)CCCCN)[C@@H](O)CN)C(=O)NCC(=O)N[C@H](CCCN)C(=O)N1CCC[C@H]1C(=O)N[C@@H](Cc1cnc[nH]1)C(=O)N[C@@H](CCCCN)C(=O)N/C(=C\CCNC(=N)N)C(=O)O` [212.2] (H-K[Dab(3S-OH)]VG[dOrn]PHK[ΔZArg]-OH), the “Ec: MIC Escherichia coli ATCC 25922” value in assay [1] is “− (>32 μg/mL)”. Further, in assay [2], the “Ab: MIC Acinetobacter baumannii ATCC 19606” value is recorded as “− (>32 μg/mL)”. Moreover, the “Sa: MIC Staphylococcus aureus ATCC 13709” value in assay [3] is on record as “+ (≤32 μg/mL)”. Further, in assay [4] (setting [6]), the IC50 was above 300 nM. Besides, the “Pa: MIC Pseudomonas aeruginosa ATCC 27853” value in assay [5] was “− (>32 μg/mL)”.

As a reminder, the IC50 is the midpoint of a concentration-inhibition curve.

For the origin of these results see US10626144B2, “Peptide derivatives and uses thereof” (Nosopharm, priority 2014, dated 2020).
